Assay results from patent EP0187355A1, “Process for preparing beta-lactam antibiotics” (E.R. Squibb & Sons, Inc., priority 1981, dated 1982).
Structures can show the parent of a compound that is named as a salt.

What was measured:
Assay in all cases: MIC, agar dilution
Assay type in all cases: cell-based
[1] = system: Serratia marcescens, 9783; conditions: Serratia marcescens, 9783, 18 h, K-10 agar, 10^4 CFU, 37°C, read-out: M.I.C.
Procedure, shortened: (§1)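 MIC, the lowest compound concentration preventing visible growth, is read after plates incubate 18 h at 37°C. Plates hold K-10 agar with twofold drug dilutions spanning 100 to 0.05 µg/ml, each spot-inoculated with 10^4 CFU.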

Escherichia coli, 10909 = conditions: K-10 agar, 10^4 CFU, 37°C, 18 hours
Procedure, shortened: as §1

[2] = system: Staphylococcus aureus, 2400; conditions: Staphylococcus aureus, 2400; K-10 agar, 10^4 CFU, 37°C, 18 hours; read-out: M.I.C.
Procedure, shortened: as §1

[3] = system: Pseudomonas aeruginosa, 9545; conditions: Pseudomonas aeruginosa, 9545, 18 h, K-10 agar, 10^4 CFU, 37°C, read-out: M.I.C.
Procedure, shortened: as §1

[4] = system: Klebsiella pneumoniae, 9527; conditions: Klebsiella pneumoniae, 9527, 18 h, K-10 agar, 10^4 CFU, 37°C, read-out: M.I.C.
Procedure, shortened: as §1

[5] = system: Staphylococcus aureus, 10165; conditions: Staphylococcus aureus, 10165; K-10 agar, 10^4 CFU, 37°C, 18 hours; read-out: M.I.C.
Procedure, shortened: as §1

Salmonella typhosa, 1195 = conditions: Salmonella enterica, TYPHOSA, 18 h, K-10 agar, 10^4 CFU, 37°C
Procedure, shortened: as §1

[6] = system: Citrobacter freundii, 9518; conditions: K-10 agar, 10^4 CFU, 37°C, 18 hours, read-out: M.I.C.
Procedure, shortened: as §1

Proteus rettgeri, 8479 = conditions: Providencia rettgeri, K-10 agar, 10^4 CFU, 37°C, 18 hours, read-out: M.I.C.
Procedure, shortened: as §1

[7] = system: Acinetobacter calcoaceticus, 8333; conditions: Acinetobacter calcoaceticus, 8333, 18 h, K-10 agar, 10^4 CFU, 37°C, read-out: M.I.C.
Procedure, shortened: as §1

[8] = system: Klebsiella aerogenes, 10440; conditions: K-10 agar, 10^4 CFU, 37°C, 18 hours, read-out: M.I.C.
Procedure, shortened: as §1

[9] = system: Staphylococcus aureus, 2399; conditions: Staphylococcus aureus, 2399, 18 h, Staphylococcus aureus, 2399; K-10 agar, 10^4 CFU, 37°C, 18 hours; read-out: M.I.C.
Procedure, shortened: as §1

Shigella sonnei, 8449 = conditions: Shigella sonnei, 8449, 18 h, K-10 agar, 10^4 CFU, 37°C
Procedure, shortened: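 Overnight broth cultures (37°C, 18–20 h) were diluted 1:100 and spotted onto K-10 agar plates containing twofold compound dilutions (final 100 to 0.05 µg/ml), giving 10^4 CFU per spot. After 18 h at 37°C, MIC was read as the lowest concentration inhibiting growth.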

[10] = system: Staphylococcus aureus, 1276; conditions: Staphylococcus aureus, 1276; K-10 agar, 10^4 CFU, 37°C, 18 hours; read-out: M.I.C.
Procedure, shortened: as §1

[11] = system: Pseudomonas aeruginosa, 8329; conditions: K-10 agar, 10^4 CFU, 37°C, 18 hours, read-out: M.I.C.
Procedure, shortened: as §1

Escherichia coli, 10896 = conditions: K-10 agar, 10^4 CFU, 37°C, 18 hours
Procedure, shortened: as §1

Proteus vulgaris, 9416 = conditions: K-10 agar, 10^4 CFU, 37°C, 18 hours, read-out: M.I.C.
Procedure, shortened: as §1

Escherichia coli, 8294 = conditions: Escherichia coli, 8294, 18 h, K-10 agar, 10^4 CFU, 37°C
Procedure, shortened: as §1

Proteus mirabilis, 3855 = conditions: Proteus mirabilis, 3855, 18 h, K-10 agar, 10^4 CFU, 37°C, read-out: M.I.C.
Procedure, shortened: as §1

Escherichia coli, 10857 = conditions: Escherichia coli, 10857, 18 h, K-10 agar, 10^4 CFU, 37°C
Procedure, shortened: as §1

[12] = system: Enterobacter aerogenes, 10078; conditions: Klebsiella aerogenes, 10078, 18 h, Enterobacter aerogenes, 10078; K-10 agar, 10^4 CFU, 37°C, 18 hours; read-out: M.I.C.
Procedure, shortened: as §1

[13] = system: Streptococcus faecalis, 9011; conditions: Enterococcus faecalis; Streptococcus faecalis, 9011; K-10 agar, 10^4 CFU, 37°C, 18 hours; read-out: M.I.C.
Procedure, shortened: as §1

[14] = system: Streptococcus agalactiae, 9287; conditions: Streptococcus agalactiae, 9287, 18 h, K-10 agar, 10^4 CFU, 37°C, read-out: M.I.C.
Procedure, shortened: (§2)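 Broth cultures grown 18-20 h at 37°C, diluted 1:100 in K-10 broth, applied by multipoint inoculator at 10^4 CFU onto K-10 agar holding twofold compound dilutions, 100 to 0.05 µg/ml final. MIC taken as lowest concentration inhibiting growth.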

Micrococcus luteus, 2495 = conditions: Micrococcus luteus, 2495, 18 h, K-10 agar, 10^4 CFU, 37°C, read-out: M.I.C.
Procedure, shortened: as §2

[15] = system: Enterobacter cloacae, 8236; conditions: Enterobacter cloacae, 8236, 18 h, K-10 agar, 10^4 CFU, 37°C
Procedure, shortened: as §2

C[C@H]1[C@H](NC(=O)/C(=N\OCC(=O)O)c2csc(N)n2)C(=O)N1S(=O)(=O)O [Example 31, [3S-[3α(Z),4β]]-3-[[[(Carboxymethoxy)imino](2-amino-4-thiazolyl)acetyl]amino]-4-methyl-2-oxo-l-azetidinesulfonic acid, dipotassium salt] showed an MIC [1] of 0.4 µg/mL, an MIC (Escherichia coli, 10909) of 0.1 µg/mL and an MIC [2] of over 100 µg/mL. It also gave an MIC [3] of 0.8 µg/mL, an MIC [4] of 0.2 µg/mL and an MIC [5] of over 100 µg/mL. The MIC (Salmonella typhosa, 1195) was 0.2 µg/mL, the MIC [6] was 0.2 µg/mL and the MIC (Proteus rettgeri, 8479) was 0.05 µg/mL. The MIC [7] was 100 µg/mL, the MIC [8] was 0.8 µg/mL and the MIC [9] was over 100 µg/mL. The MIC (Shigella sonnei, 8449) was 0.4 µg/mL, the MIC [10] was over 100 µg/mL and the MIC [11] was 12.5 µg/mL. The MIC (Escherichia coli, 10896) was 0.1 µg/mL, the MIC (Proteus vulgaris, 9416) was 0.2 µg/mL and the MIC (Escherichia coli, 8294) was 0.4 µg/mL. For the same compound, the MIC (Proteus mirabilis, 3855) was 0.2 µg/mL, the MIC (Escherichia coli, 10857) was 0.2 µg/mL and the MIC [12] was 0.4 µg/mL. The MIC [13] was over 100 µg/mL, the MIC [14] was 100 µg/mL and the MIC (Micrococcus luteus, 2495) was over 100 µg/mL. The MIC [15] was 0.2 µg/mL.

CC1C(NC(=O)C(NC(=O)N2CCN(N)C(=O)C2=O)c2ccccc2)C(=O)N1S(=O)(=O)O (stereo not drawn) [Example 32, [3S(R*)]-3-[[[[(4-Amino-2,3-dioxo-1-piperazinyl)-carbonyl]amino]phenylacetyl]amino]-4-methyl-2-oxo-l-azetidinesulfonic acid, potassium salt] gave an MIC [1] of 3.1 µg/mL, an MIC (Escherichia coli, 10909) of 0.8 µg/mL and an MIC [2] of 25 µg/mL. It also gave an MIC [3] of 6.3 µg/mL, an MIC [4] of 0.2 µg/mL and an MIC [5] of over 100 µg/mL. For the same compound, the MIC (Salmonella typhosa, 1195) was 0.2 µg/mL, the MIC [6] was 3.1 µg/mL and the MIC (Proteus rettgeri, 8479) was 0.4 µg/mL. For the same compound, the MIC [7] was 50 µg/mL, the MIC [8] was 1.6 µg/mL and the MIC [9] was 12.5 µg/mL. For the same compound, the MIC (Shigella sonnei, 8449) was 6.3 µg/mL, the MIC [10] was 25 µg/mL and the MIC [11] was 50 µg/mL. It also gave an MIC (Escherichia coli, 10896) of 12.5 µg/mL, an MIC (Proteus vulgaris, 9416) of 0.2 µg/mL and an MIC (Escherichia coli, 8294) of 3.1 µg/mL. It also gave an MIC (Proteus mirabilis, 3855) of 0.4 µg/mL, an MIC (Escherichia coli, 10857) of 0.4 µg/mL and an MIC [12] of 6.3 µg/mL. It also gave an MIC [13] of over 100 µg/mL, an MIC [14] of 6.3 µg/mL and an MIC (Micrococcus luteus, 2495) of 6.3 µg/mL. The MIC [15] was 6.3 µg/mL.
